Data set [1] is described as follows: Pharmacokinetic and tissue distribution in Lewis rats. The format is in vivo. As to conditions: male, rat, lung / plasma, oral, 5 mg/kg, gavage 5 mpk, read-out: Ratio in lung blood. As for the experimental part:
The pharmacokinetic and tissue distribution of the compounds in Lewis rats was tested.
Lewis rats (male, 202-239 g, 7-9 weeks old, Beijing Viton Lihua)
Formulations containing an aqueous solution of 1% hydroxypropyl methylcellulose/0.2% Tween 80 as the vehicle were administered by gavage (5 mpk). Before the animal experiment, all animals were fasted overnight, and fed 4 hours after administration; all animals were free to drink water. The time points of blood collection: danirixin administration group: 0.25, 1, 8 hours; gavage administration group: 0.5, 1, 4 hours.
(§1) Whole blood samples (0.2 mL) were collected through the saphenous vein (or other suitable blood collection sites) at the prescribed time points, and all blood samples were added to labeled plastic centrifuge tubes containing K2-EDTA anticoagulant. After the blood samples were collected, the plasma was separated by centrifugation, immediately placed in dry ice and stored at low temperature. All samples were analyzed by LC-MS/MS with a minimum detection limit of 2 nM. The non-compartmental model of WinNonlin™ Version 6.3 (Pharsight, Mountain View, Calif.) pharmacokinetic software was used to process the mean plasma concentration, and the log-linear trapezoid method was used to calculate the pharmacokinetic parameters.

The next data set deals with PPE-induced COPD model. Nature of the data set: Therapeutic effect on PPE-induced COPD model, flow cytometry of inflammatory cells. The format is in vivo, C57BL/6 mice. As to conditions: PPE-induced mouse COPD model, daily gavage 4 weeks, high dose (120 mpk). As for the experimental part:
The therapeutic effect of the compounds on PPE-induced COPD model in C57BL/6 mice was tested. Animals: C57BL/6 mice (female, 17.5-18.5 g, 6-8 weeks old) Drugs: Porcine pancreas elastase (PPE) (sigma, 0.068 U/μL); compound 1 in FIG. 1, FIG. 2 and FIG. 3 is danirixin; compound 2 is WX006A. Grouping: (1) COPD model group (porcine pancreatic elastase model group) • (2) PPE+ danirixin (40 mpk) • (3) PPE+ danirixin (120 mpk) • (4) PPE+WX006A (4 mpk) • (5) PPE+WX006A (12 mpk) 1. Modeling method: PPE was administered through by drip transfusion at the back of the tongue. 2. Administration method: an aqueous solution of 1% DMSO/1% hydroxypropyl methylcellulose/0.2% Tween 80 was used as the vehicle; the animals were daily administered with a volume of 200 μL/animal by gavage for 4 weeks. 3. End point of the experiment: On the 29th day, the mice were euthanized, samples were collected, and flow cytometry was performed. The blood, alveolar lavage fluid and lung tissue of the mice were collected after 4 weeks of administration to determine the percentage of inflammatory cells. 1) Alveolar lavage cells: the mice were euthanized. […] 3) The cells were counted and the cell suspensions were transferred into flow cytometry tubes. […] 5) After washing the cells, the percentage of neutrophils and monocytes in CD45^+ cells was determined using a flow cytometer.

Data set [2] in a line: Pharmacokinetic evaluation in C57BL/6 mice. The format is in vivo. The note with it: male, mouse, plasma. As for the experimental part:
The pharmacokinetic parameters of the compounds in C57BL/6 mice were investigated.
C57BL/6 mice (male, 18-30 g, 7-9 weeks old, Shanghai Lingchang Biotechnology Co., Ltd.)
Formulations containing an aqueous solution of 1% DMSO/10% hydroxypropyl-β-cyclodextrin as the vehicle were administered by intravenous injection (1 mpk), formulations containing an aqueous solution of 1% DMSO/1% hydroxypropyl methylcellulose/0.2% Tween 80 as the vehicle were administered by gavage (5 mpk). Before the animal experiment, all animals were fasted, and fed 4 hours after administration; all animals were free to drink water. The time points of blood collection: intravenous injection administration group: 0.083, 0.25, 0.5, 1, 2, 4, 6, 8 and 24 hours; gavage administration group: 0.25, 0.5, 1, 2, 4, 6, 8 and 24 hours.
as §1, with “(0.03” for “(0.2”, “isolated” for “separated”, “linear-log” for “log-linear”

Molecules are shown by their SMILES.

The bioavailability is dose-corrected exposure relative to a reference, in per cent. With `Cc1c(F)cccc1NC(=O)Nc1ccc(Cl)c(S(=O)(=O)[C@H]2CCCNC2)c1O` [Danirixin, danirixin, reference compound], the Kp in data set [1] turned out to be 1.57. In addition, in the data set on PPE-induced COPD model, the “proportion of monocytes in the alveolar lavage fluid” value is recorded as “significant effect of reducing” and the “proportion of neutrophils in the alveolar lavage fluid” value is “significant effect of reducing”. The same compound came in with a clearance in data set [2] (intravenous 1 mpk / gavage 5 mpk study) of 42.5 mL/min/kg. Also, the half-life in data set [2] (intravenous 1 mpk / gavage 5 mpk study, read-out: Half-life T1/2 (converted)) is 7.43 h. Further, in data set [2] (intravenous 1 mpk / gavage 5 mpk study, route not stated, unit printed shifted under first column, read-out: Area under the drug concentration time curve (AUC)), the AUC stood at 1.58 µM·h. The bioavailability in data set [2] (po, 5 mg/kg, gavage 5 mpk vs intravenous 1 mpk, read-out: Bioavailability (F)) is 34.3%.

Source of the values: patent publication US11136315B2, “CXCR2 antagonist” (MEDSHINE DISCOVERY INC., priority 2018, dated 2021).
